# According to patent US6448052B2, “Carbonyl reductase enzyme and methods for its use” (Kaneka Corporation, priority 1997, dated 2002):
# B1: CRD enzyme: carbonyl reductase purified from Candida magnoliae IFO 0705, amino acid sequence SEQ ID NO:1 (protein, listed as Candida magnoliae)
# chain: MAKNFSNVEYPAPPPAHTKNESLQVLDLFKLNGKVASITGSSSGIGYALAEAFAQVGADVAIWYNSHDATGKAEALAKKYGVKVKAYKANVSSSDAVKQTIEQQIKDFGHLDIVVANAGIPWTKGAYIDQDDDKHFDQVVDVDLKGVGYVAKHAGRHFRERFEKEGKKGALVFTASMSGHIVNVPQFQATYNAAKAGVRHFAKSLAVEFAPFARVNSVSPGYINTEISDFVPQETQNKWWSLVPLGRGGETAELVGAYLFLASDAGSYATGTDIIVDGGYTLP
# Columns and labels:
# CRD enzyme [1] = experiment: Effect of metal ions and inhibitors on CRD enzyme activity, ethyl 4-chloroacetoacetate as substrate; type: biochemical, Candida magnoliae IFO 0705
# CRD enzyme [2] = experiment: Substrate specificity of the purified CRD enzyme (decrease in NADPH absorption at 340 nm); type: biochemical, Candida magnoliae IFO 0705; conditions: for Relative activity (%): Substrate 0.2 mM, 0.32 mM NADPH, 200 mM phosphate buffer pH 7.0, 30° C., ethyl 4-chloroacetoacetate = 100; for substrate specificity (activity of the enzyme to the substrate, in words): NADPH as coenzyme
# Experimental: First, the above yeast is cultured in an appropriate medium, and microbe bodies are collected from the resultant culture by centrifugation. The microbe bodies are destroyed by Dyno mill (manufactured by Dyno-Mill), for example, and centrifuged to remove cell debris and thus obtain a cell-free extract. The cell-free extract is then subjected to a processing, such as salting-out (e.g., ammonium sulfate precipitation and sodium phosphate precipitation), solvent precipitation (a protein fractionation precipitation method using acetone, ethanol, or the like), dialysis, gel filtration, ion exchange, column chromatography such as a reverse phase chromatography, and ultrafiltration, alone or in combination, to purify the enzyme. The CRD enzyme activity can be determined by measuring a reduction in the absorption at 340 nm at 30° C., for a 100 mM phosphate buffer (pH 6.5) with 1 mM ethyl 4-chloroacetoacetate as a substrate, 0.1 mM NADPH as a coenzyme, and the enzyme added thereto, or a 200 mM phosphate buffer (pH 7.0) with 0.2 mM ethyl 4-chloroacetoacetate as a substrate and 0.32 mM NADPH as a coenzyme added thereto. Under these reaction conditions, oxidation of 1 μmol NADPH into NADP in one minute is defined as one unit of enzymatic activity.
# The enzyme activity was determined by, basically, allowing 3 ml of a reaction solution including 0.2 mM ethyl 4-chloroacetoacetate as a substrate, 0.32 mM NADPH as a coenzyme, and 0.1 ml of an enzyme solution in a 200 mM phosphate buffer (pH 7.0) to react at 30° C. for one minute and measuring a reduction in the absorption at 340 nm.
# The enzyme according to the present invention was reacted using various carbonyl compounds shown in Table 1 below as a substrate under the same conditions as those used for ethyl 4-chloroacetoacetate.
# CRD enzyme [3] = experiment: Organic solvent resistance of the CRD enzyme; type: biochemical, Candida magnoliae IFO 0705; conditions: equivalent amount of solvent added to phosphate buffer (pH 7.0), shaken at 28° C. for 30 minutes
# [4] = type: physicochemical, Candida magnoliae IFO 0705; conditions: 0.5 h, pH 7
# Experimental: The expression that an enzyme is “stable” as used herein means that after being processed at pH 7.0 at 40° C. for 30 minutes the enzyme sustains an activity of 90% or more of that before the processing.
# After the enzyme according to the present invention was treated at pH 7.0at 40° C. for 30 minutes, the activity of the enzyme was measured using ethyl 4-chloroacetoacetate as a substrate. As a result, the activity of 90% of that before the treatment remained.
# [5] = Concentration of addition 1 mM, non-added = 100
# [6] = Concentration of addition 0.1 mM, non-added = 100
molecule,measurement,setting,value
O=C(O)CI [Iodoacetic acid],Relative activity (%),CRD enzyme [1],100%
[Cl][Sn][Cl] [SnCl2],Relative activity (%),CRD enzyme [1]; [5],77%
CC(=O)C(C)=O [Diacetyl],Relative activity (%),CRD enzyme [2],19%
O=Cc1ccccc1[N+](=O)[O-] [o-nitrobenzaldehyde],Relative activity (%),CRD enzyme [2],0%
[Cl][Pb][Cl] [PbCl2],Relative activity (%),CRD enzyme [1]; [5],86%
O=Cc1cccc([N+](=O)[O-])c1 [m-nitrobenzaldehyde],Relative activity (%),CRD enzyme [2],0%
COC(=O)CC(=O)CCl [methyl 4-chloroacetoacetate],Relative activity (%),CRD enzyme [2],11%
[Cl-].[Cl-].[Co+2] [CoCl2],Relative activity (%),CRD enzyme [1],89%
O=c1c(O)c(-c2ccc(O)c(O)c2)oc2cc(O)cc(O)c12 [Quercetin],"inhibitor (enzyme inhibited, in words)",CRD enzyme [1],inhibited
same,Relative activity (%),"CRD enzyme [1]; Concentration of addition 0.01 mM, non-added = 100",84%
same,Relative activity (%),CRD enzyme [1]; [6],0%
NNc1ccccc1 [Phenylhydrazine],Relative activity (%),CRD enzyme [1]; [5],97%
O=c1oc2ccccc2c(O)c1Cc1c(O)c2ccccc2oc1=O [Dicoumarol],Relative activity (%),CRD enzyme [1]; [6],97%
O=C(O)CN(CCN(CC(=O)O)CC(=O)O)CC(=O)O [EDTA],Relative activity (%),CRD enzyme [1]; [5],95%
CCN1C(=O)C=CC1=O [NEM],Relative activity (%),CRD enzyme [1]; [5],105%
O=Cc1cccc(Cl)c1 [m-chlorobenzaldehyde],Relative activity (%),CRD enzyme [2],0%
CCCCOC(C)=O [butyl acetate],residual activity of the enzyme in the aqueous phase,CRD enzyme [3],85%
COC(=O)C(Cl)C(C)=O (stereo not shown) [methyl 2-chloroacetoacetate],Relative activity (%),CRD enzyme [2],11%
O=Cc1cccnc1 [Nicotinaldehyde],Relative activity (%),CRD enzyme [2],0%
O=Cc1ccc([N+](=O)[O-])cc1 [p-nitrobenzaldehyde],Relative activity (%),CRD enzyme [2],0%
"O=[N+]([O-])c1ccc(O)c([N+](=O)[O-])c1 [2,4-dinitrophenol]",Relative activity (%),CRD enzyme [1]; [6],86%
CCOC(=O)C(Cl)C(C)=O (stereo not shown) [ethyl 2-chloroacetoacetate],Relative activity (%),CRD enzyme [2],95%
O=S(=O)([O-])[O-].[Cu+2] [CuSO4],Relative activity (%),CRD enzyme [1]; [5],85%
O=S(=O)(F)Cc1ccccc1 [PMSF],Relative activity (%),CRD enzyme [1]; [5],93%
CCOC(=O)CC(C)=O [Ethyl acetoacetate],"substrate specificity (activity of the enzyme to the substrate, in words)",CRD enzyme [2],substantially no activity
same,Relative activity (%),CRD enzyme [2],0%
O=Cc1ccccc1 [Benzaldehyde],Relative activity (%),CRD enzyme [2],0%
CCOC(=O)CC(=O)CCl [ethyl 4-chloroacetoacetate],"substrate specificity (activity of the enzyme to the substrate, in words)",CRD enzyme [2],strong activity
same,Relative activity (%),CRD enzyme [2],100%
[Cl-].[Cl-].[Mg+2] [MgCl2],Relative activity (%),CRD enzyme [1]; [5],83%
CC(=O)C=O [Methyl glyoxal],Relative activity (%),CRD enzyme [2],0%
O=S(=O)([O-])[O-].[Zn+2] [ZnSO4],Relative activity (%),CRD enzyme [1]; [5],97%
O=C(O)c1cc[c]([Hg][Cl])cc1 [p-CMB],Relative activity (%),CRD enzyme [1]; [5],88%
O=Cc1ccccc1Cl [o-chlorobenzaldehyde],Relative activity (%),CRD enzyme [2],0%
O=CCCl [Chloroacetoaldehyde],Relative activity (%),CRD enzyme [2],0%
[Cl][Hg][Cl] [HgCl2],"inhibitor (enzyme inhibited, in words)",CRD enzyme [1],inhibited
same,Relative activity (%),CRD enzyme [1]; [6],49%
O=C(O)c1cc(SSc2ccc([N+](=O)[O-])c(C(=O)O)c2)ccc1[N+](=O)[O-] [DTNB],Relative activity (%),"CRD enzyme [1]; Concentration of addition 0.05 mM, non-added = 100",100%
O=CC=O [Glyoxal],Relative activity (%),CRD enzyme [2],0%
CCCCCCCCOC(=O)CC(=O)CCl [octyl 4-chloroacetoacetate],Relative activity (%),CRD enzyme [2],36%
CCOC(C)=O [ethyl acetate],residual activity of the enzyme in the aqueous phase,CRD enzyme [3],72%
O=Cc1ccc(Cl)cc1 [p-chlorobenzaldehyde],Relative activity (%),CRD enzyme [2],0%
CC12CCC(C(=O)C1=O)C2(C)C (stereo not shown) [Camphor quinone],Relative activity (%),CRD enzyme [2],0%
[Cl][Cd][Cl] [CdCl2],Relative activity (%),CRD enzyme [1]; [5],91%
O=Cc1ccncc1 [isonicotinaldehyde],Relative activity (%),CRD enzyme [2],0%
B1,heat stability: activity remaining relative to before the treatment,[4],90%
